Test results: ChEMBL document CHEMBL1201862, “PubChem BioAssay data set” (2004)
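Compound exposure: 48 hours, 5 concentrations, 96-well plates. GI50 = concentration required for 50% inhibition of growth.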 The source made the active and inactive calls. No stated cut-off is given here; in the data, active = GI50 up to about 1.1 µM and inactive = higher.

Assays:
Experiment in all cases: NCI anticancer screen, dose series, 48 h
786-0 = test system: 786-0
A498 = test system: A498
A549 = test system: A549
ACHN = test system: ACHN
CAKI-1 = test system: CAKI-1
CCRF-CEM = test system: CCRF-CEM
COLO 205 = test system: COLO 205
DLD-1 = test system: DLD-1
DMS-114 = test system: DMS-114
DMS-273 = test system: DMS-273
HCC 2998 = test system: HCC 2998
HCT-116 = test system: HCT-116
HCT-15 = test system: HCT-15
HL-60 = test system: HL-60
HOP-18 = test system: HOP-18
HOP-62 = test system: HOP-62
HT-29 = test system: HT-29
IGROV-1 = test system: IGROV-1
K562 = test system: K562
KM-20L2 = test system: KM-20L2
KM12 = test system: KM12
LOX IMVI = test system: LOX IMVI
LXFL 529 = test system: LXFL 529
M14 = test system: M14
M19-MEL = test system: M19-MEL
MOLT-4 = test system: MOLT-4
Malme-3M = test system: Malme-3M
NCI-H226 = test system: NCI-H226
NCI-H23 = test system: NCI-H23
NCI-H460 = test system: NCI-H460
NCI-H522 = test system: NCI-H522
OVCAR-3 = test system: OVCAR-3
OVCAR-4 = test system: OVCAR-4
OVCAR-5 = test system: OVCAR-5
OVCAR-8 = test system: OVCAR-8
RPMI-8226 = test system: RPMI-8226
RXF 393 = test system: RXF 393
SF-268 = test system: SF-268
SF-295 = test system: SF-295
SF-539 = test system: SF-539
SK-MEL-28 = test system: SK-MEL-28
SK-MEL-2 = test system: SK-MEL-2
SK-MEL-5 = test system: SK-MEL-5
SK-OV-3 = test system: SK-OV-3
SN12C = test system: SN12C
SNB-19 = test system: SNB-19
SNB-75 = test system: SNB-75
SNB-78 = test system: SNB-78
SR = test system: SR
TK-10 = test system: TK-10
U-251 = test system: U-251
UACC-257 = test system: UACC-257
UACC-62 = test system: UACC-62
UO-31 = test system: UO-31
EKVX = test system: EKVX
HOP-92 = test system: HOP-92
SW-620 = test system: SW-620

COC(OC)c1cccc2c1C1(O)CCC3(CC21)OCCCCO3 (stereo not drawn)
GI50 (786-0): > 100 µM (inactive) | GI50 (A498): > 100 µM (inactive) | GI50 (A549): > 100 µM (inactive) | GI50 (ACHN): > 100 µM (inactive) | GI50 (CAKI-1): > 100 µM (inactive) | GI50 (CCRF-CEM): > 100 µM (inactive) | GI50 (COLO 205): > 100 µM (inactive) | GI50 (DLD-1): > 100 µM (inactive) | GI50 (DMS-114): > 100 µM (inactive) | GI50 (DMS-273): > 100 µM (inactive) | GI50 (HCC 2998): > 100 µM (inactive) | GI50 (HCT-116): > 100 µM (inactive) | GI50 (HCT-15): > 100 µM | GI50 (HL-60): > 100 µM (inactive) | GI50 (HOP-18): > 100 µM (inactive) | GI50 (HOP-62): > 100 µM (inactive) | GI50 (HT-29): > 100 µM (inactive) | GI50 (IGROV-1): > 100 µM (inactive) | GI50 (K562): > 100 µM (inactive) | GI50 (KM-20L2): > 100 µM (inactive) | GI50 (KM12): > 100 µM (inactive) | GI50 (LOX IMVI): > 100 µM (inactive) | GI50 (LXFL 529): > 100 µM (inactive) | GI50 (M14): > 100 µM (inactive) | GI50 (M19-MEL): > 100 µM (inactive) | GI50 (MOLT-4): > 100 µM (inactive) | GI50 (Malme-3M): > 100 µM (inactive) | GI50 (NCI-H226): > 100 µM (inactive) | GI50 (NCI-H23): > 100 µM (inactive) | GI50 (NCI-H460): > 100 µM (inactive) | GI50 (NCI-H522): > 100 µM (inactive) | GI50 (OVCAR-3): > 100 µM (inactive) | GI50 (OVCAR-4): > 100 µM (inactive) | GI50 (OVCAR-5): > 100 µM (inactive) | GI50 (OVCAR-8): > 100 µM (inactive) | GI50 (RPMI-8226): > 100 µM (inactive) | GI50 (RXF 393): > 100 µM (inactive) | GI50 (SF-268): > 100 µM (inactive) | GI50 (SF-295): > 100 µM (inactive) | GI50 (SF-539): > 100 µM (inactive) | GI50 (SK-MEL-28): > 100 µM (inactive) | GI50 (SK-MEL-2): > 100 µM (inactive) | GI50 (SK-MEL-5): > 100 µM (inactive) | GI50 (SK-OV-3): > 100 µM (inactive) | GI50 (SN12C): > 100 µM (inactive) | GI50 (SNB-19): > 100 µM (inactive) | GI50 (SNB-75): > 100 µM (inactive) | GI50 (SNB-78): > 100 µM (inactive) | GI50 (SR): > 100 µM (inactive) | GI50 (TK-10): > 100 µM (inactive) | GI50 (U-251): > 100 µM (inactive) | GI50 (UACC-257): > 100 µM (inactive) | GI50 (UACC-62): > 100 µM (inactive) | GI50 (UO-31): > 100 µM (inactive)

Cc1ccc(S(=O)(=O)N/N=C(/CC(=O)c2c(C)[n+]([O-])c3ccccc3[n+]2[O-])C(=O)Nc2ccccc2C)cc1
GI50 (786-0): > 100 µM (inactive) | GI50 (A498): > 100 µM (inactive) | GI50 (A549): > 100 µM (inactive) | GI50 (ACHN): > 100 µM (inactive) | GI50 (CAKI-1): > 100 µM (inactive) | GI50 (COLO 205): > 100 µM (inactive) | GI50 (DLD-1): > 100 µM (inactive) | GI50 (DMS-114): > 100 µM (inactive) | GI50 (DMS-273): > 100 µM (inactive) | GI50 (EKVX): > 100 µM (inactive) | GI50 (HCC 2998): > 100 µM (inactive) | GI50 (HCT-116): > 100 µM (inactive) | GI50 (HCT-15): > 100 µM | GI50 (HOP-18): > 100 µM (inactive) | GI50 (HOP-62): > 100 µM (inactive) | GI50 (HOP-92): 30.8 µM (inactive) | GI50 (HT-29): > 100 µM (inactive) | GI50 (IGROV-1): > 100 µM (inactive) | GI50 (KM-20L2): > 100 µM (inactive) | GI50 (KM12): > 100 µM (inactive) | GI50 (LXFL 529): > 100 µM (inactive) | GI50 (M14): > 100 µM (inactive) | GI50 (M19-MEL): > 100 µM (inactive) | GI50 (Malme-3M): > 100 µM (inactive) | GI50 (NCI-H226): > 100 µM (inactive) | GI50 (NCI-H23): > 100 µM (inactive) | GI50 (NCI-H460): > 100 µM (inactive) | GI50 (NCI-H522): > 100 µM (inactive) | GI50 (OVCAR-3): > 100 µM (inactive) | GI50 (OVCAR-4): > 100 µM (inactive) | GI50 (OVCAR-5): > 100 µM (inactive) | GI50 (RPMI-8226): > 100 µM (inactive) | GI50 (RXF 393): > 100 µM (inactive) | GI50 (SF-268): > 100 µM (inactive) | GI50 (SF-295): > 100 µM (inactive) | GI50 (SF-539): > 100 µM (inactive) | GI50 (SK-MEL-28): > 100 µM (inactive) | GI50 (SK-MEL-2): > 100 µM (inactive) | GI50 (SK-OV-3): > 100 µM (inactive) | GI50 (SN12C): > 100 µM (inactive) | GI50 (SNB-19): > 100 µM (inactive) | GI50 (SNB-75): 31.2 µM (inactive) | GI50 (SNB-78): > 100 µM (inactive) | GI50 (SR): 35.5 µM (inactive) | GI50 (SW-620): > 100 µM (inactive) | GI50 (U-251): > 100 µM (inactive) | GI50 (UACC-257): > 100 µM (inactive) | GI50 (UACC-62): > 100 µM (inactive) | GI50 (UO-31): > 100 µM (inactive)
